≈ marks a conversion by molar mass, not a printed value.
Tests used:
A172 cells = assay: MTT cytotoxicity assay, astrocytes model; assay type: cell-based; conditions: Homo sapiens, A 172, 24 h, read-out: IC50, Astrocytes
SH-SY5Y cells = assay: MTT cytotoxicity assay, neurons model; assay type: cell-based; conditions: Homo sapiens, 24 h, read-out: IC50, Neurons
BV-2 cells = assay: MTT cytotoxicity assay, microglia model; assay type: cell-based, murine; conditions: Mus musculus, BV-2, 24 h, read-out: IC50, Microglia
bEnd.3 cells = assay: MTT cytotoxicity assay, BBB model; assay type: cell-based, murine; conditions: Mus musculus, BEND3, 24 h, read-out: IC50, BBB

Cc1cn([C@H]2C[C@H](N=[N+]=[N-])[C@@H](CO)O2)c(=O)[nH]c1=O [Z, 3’-azido-3’-deoxythymidine]
IC50 (A172 cells): > 1000 µg/mL
IC50 (SH-SY5Y cells): > 1000 µg/mL
IC50 (BV-2 cells): 800 µg/mL (≈ 2.99 mM)
IC50 (bEnd.3 cells): > 1000 µg/mL
reduction in the mtDNA/nuDNA ratio / mitochondrial toxicity (HepG2 cells): two-fold reduction
